Literature values, collected in patent US20060121016A1, “Methods and compositions for treatment of free radical injury” (priority 2004, published 2006).

Settings: administered both before and after the operation

SMILES: Oc1ncnc2[nH]ncc12 [allopurinol]
- Reduction of incidence of complication following surgery: 70%
